In ChEMBL document CHEMBL3045546, “Synthesis and antimicrobial screening of 4-thiazolidinone and 2-azetidinone derivatives of piperazine” (2013):
Values after ≈ are worked out from the molar mass of the structure shown.

Tests used:
Assay type in all cases: functional
Aspergillus fumigatus = test: Antimicrobial activity against Aspergillus fumigatus assessed as growth inhibition by broth dilution method
Staphylococcus hominis = test: Antimicrobial activity against Staphylococcus hominis ATCC 27844 assessed as growth inhibition by broth dilution method
Trichophyton longifusum = test: Antimicrobial activity against Trichophyton longifusum ATCC 22397 assessed as growth inhibition by broth dilution method
[1] = tested on: Staphylococcus epidermidis; test: Antimicrobial activity against Staphylococcus epidermidis ATCC 12228 assessed as growth inhibition by broth dilution method
Proteus mirabilis = test: Antimicrobial activity against Proteus mirabilis ATCC 49565 assessed as growth inhibition by broth dilution method
Pseudomonas aeruginosa = test: Antimicrobial activity against Pseudomonas aeruginosa ATCC 10145 assessed as growth inhibition by broth dilution method
Aspergillus awamori = test: Antimicrobial activity against Aspergillus awamori ATCC 22342 assessed as growth inhibition by broth dilution method
Fusarium solani = test: Antimicrobial activity against Fusarium solani ATCC 38136 assessed as growth inhibition by broth dilution method
Escherichia coli = test: Antimicrobial activity against Escherichia coli ATCC 25922 assessed as growth inhibition by broth dilution method
Micrococcus luteus = test: Antimicrobial activity against Micrococcus luteus ATCC 4698 assessed as growth inhibition by broth dilution method
Bacillus pumilus = test: Antimicrobial activity against Bacillus pumilus ATCC 14884 assessed as growth inhibition by broth dilution method
Aspergillus niger = test: Antimicrobial activity against Aspergillus niger ATCC 9142 assessed as growth inhibition by broth dilution method
Candida albicans = test: Antimicrobial activity against Candida albicans ATCC 10231 assessed as growth inhibition by broth dilution method
Proteus vulgaris = test: Antimicrobial activity against Proteus vulgaris ATCC 13315 assessed as growth inhibition by broth dilution method
Klebsiella pneumoniae = test: Antimicrobial activity against Klebsiella pneumoniae ATCC 13883 assessed as growth inhibition by broth dilution method
Alternaria alternata = test: Antimicrobial activity against Alternaria alternata ATCC 66868 assessed as growth inhibition by broth dilution method
Salmonella typhi = test: Antimicrobial activity against Salmonella enterica subsp. enterica serovar Typhi ATCC 19430 assessed as growth inhibition by broth dilution method
Aspergillus flavus = test: Antimicrobial activity against Aspergillus flavus ATCC 15517 assessed as growth inhibition by broth dilution method
Staphylococcus aureus = test: Antimicrobial activity against Staphylococcus aureus ATCC 25923 assessed as growth inhibition by broth dilution method
Bacillus subtilis = test: Antimicrobial activity against Bacillus subtilis ATCC 6633 assessed as growth inhibition by broth dilution method
Bacillus cereus = test: Antimicrobial activity against Bacillus cereus ATCC 11778 assessed as growth inhibition by broth dilution method
Trichoderma viride = test: Antimicrobial activity against Hypocrea rufa ATCC 52440 assessed as growth inhibition by broth dilution method
Rhizoctonia solani = test: Antimicrobial activity against Rhizoctonia solani ATCC 76131 assessed as growth inhibition by broth dilution method
Microsporum canis = test: Antimicrobial activity against Arthroderma otae ATCC 11622 assessed as growth inhibition by broth dilution method

COc1ccc(C2C(Cl)C(=O)N2CCN2CCN(C(=O)CCl)CC2)cc1O (stereo not given) gave an MIC (Aspergillus fumigatus) of 18.8 µg/mL (≈ 45 µM), an MIC (Staphylococcus hominis) of 9.37 µg/mL (≈ 22.5 µM) and an MIC (Trichophyton longifusum) of 9.73 µg/mL (≈ 23.4 µM). For the same compound, the MIC [1] was 9.37 µg/mL (≈ 22.5 µM), the MIC (Proteus mirabilis) was 9.37 µg/mL (≈ 22.5 µM) and the MIC (Pseudomonas aeruginosa) was 9.37 µg/mL (≈ 22.5 µM). It also gave an MIC (Aspergillus awamori) of 18.8 µg/mL (≈ 45 µM), an MIC (Fusarium solani) of 18.8 µg/mL (≈ 45 µM) and an MIC (Escherichia coli) of 9.37 µg/mL (≈ 22.5 µM). For the same compound, the MIC (Micrococcus luteus) was 4.68 µg/mL (≈ 11.2 µM), the MIC (Bacillus pumilus) was 9.37 µg/mL (≈ 22.5 µM) and the MIC (Aspergillus niger) was 18.8 µg/mL (≈ 45 µM). For the same compound, the MIC (Candida albicans) was 18.8 µg/mL (≈ 45 µM), the MIC (Proteus vulgaris) was 9.37 µg/mL (≈ 22.5 µM) and the MIC (Klebsiella pneumoniae) was 9.37 µg/mL (≈ 22.5 µM). For the same compound, the MIC (Alternaria alternata) was 9.73 µg/mL (≈ 23.4 µM), the MIC (Salmonella typhi) was 4.68 µg/mL (≈ 11.2 µM) and the MIC (Aspergillus flavus) was 18.8 µg/mL (≈ 45 µM). The MIC (Staphylococcus aureus) was 9.37 µg/mL (≈ 22.5 µM), the MIC (Bacillus subtilis) was 4.68 µg/mL (≈ 11.2 µM) and the MIC (Bacillus cereus) was 9.37 µg/mL (≈ 22.5 µM). The MIC (Trichoderma viride) was 18.8 µg/mL (≈ 45 µM), the MIC (Rhizoctonia solani) was 18.8 µg/mL (≈ 45 µM) and the MIC (Microsporum canis) was 18.8 µg/mL (≈ 45 µM).
For O=C(CCl)N1CCN(CCN2C(=O)C(Cl)C2c2ccccc2O)CC1 (stereo not given), the MIC (Aspergillus fumigatus) was 300 µg/mL (≈ 777 µM), the MIC (Staphylococcus hominis) was 150 µg/mL (≈ 388 µM) and the MIC (Trichophyton longifusum) was 300 µg/mL (≈ 777 µM). The MIC [1] was 150 µg/mL (≈ 388 µM), the MIC (Proteus mirabilis) was 75 µg/mL (≈ 194 µM) and the MIC (Pseudomonas aeruginosa) was 75 µg/mL (≈ 194 µM). For the same compound, the MIC (Aspergillus awamori) was 300 µg/mL (≈ 777 µM), the MIC (Fusarium solani) was 300 µg/mL (≈ 777 µM) and the MIC (Escherichia coli) was 150 µg/mL (≈ 388 µM). For the same compound, the MIC (Micrococcus luteus) was 75 µg/mL (≈ 194 µM), the MIC (Bacillus pumilus) was 75 µg/mL (≈ 194 µM) and the MIC (Aspergillus niger) was 300 µg/mL (≈ 777 µM). It also gave an MIC (Candida albicans) of 300 µg/mL (≈ 777 µM), an MIC (Proteus vulgaris) of 75 µg/mL (≈ 194 µM) and an MIC (Klebsiella pneumoniae) of 150 µg/mL (≈ 388 µM). For the same compound, the MIC (Alternaria alternata) was 300 µg/mL (≈ 777 µM), the MIC (Salmonella typhi) was 75 µg/mL (≈ 194 µM) and the MIC (Aspergillus flavus) was 300 µg/mL (≈ 777 µM). For the same compound, the MIC (Staphylococcus aureus) was 75 µg/mL (≈ 194 µM), the MIC (Bacillus subtilis) was 150 µg/mL (≈ 388 µM) and the MIC (Bacillus cereus) was 150 µg/mL (≈ 388 µM). It also gave an MIC (Trichoderma viride) of 300 µg/mL (≈ 777 µM), an MIC (Rhizoctonia solani) of 300 µg/mL (≈ 777 µM) and an MIC (Microsporum canis) of 300 µg/mL (≈ 777 µM).
For COc1ccc(C2C(Cl)C(=O)N2CCN2CCN(C(=O)CCl)CC2)cc1 (stereo not given), the MIC (Aspergillus fumigatus) was 9.37 µg/mL (≈ 23.4 µM), the MIC (Staphylococcus hominis) was 4.68 µg/mL (≈ 11.7 µM) and the MIC (Trichophyton longifusum) was 9.37 µg/mL (≈ 23.4 µM). It also gave an MIC [1] of 4.68 µg/mL (≈ 11.7 µM), an MIC (Proteus mirabilis) of 9.37 µg/mL (≈ 23.4 µM) and an MIC (Pseudomonas aeruginosa) of 9.37 µg/mL (≈ 23.4 µM). It also gave an MIC (Aspergillus awamori) of 9.37 µg/mL (≈ 23.4 µM), an MIC (Fusarium solani) of 18.8 µg/mL (≈ 46.8 µM) and an MIC (Escherichia coli) of 4.68 µg/mL (≈ 11.7 µM). For the same compound, the MIC (Micrococcus luteus) was 9.37 µg/mL (≈ 23.4 µM), the MIC (Bacillus pumilus) was 9.37 µg/mL (≈ 23.4 µM) and the MIC (Aspergillus niger) was 18.8 µg/mL (≈ 46.8 µM). The MIC (Candida albicans) was 18.8 µg/mL (≈ 46.8 µM), the MIC (Proteus vulgaris) was 9.37 µg/mL (≈ 23.4 µM) and the MIC (Klebsiella pneumoniae) was 9.37 µg/mL (≈ 23.4 µM). It also gave an MIC (Alternaria alternata) of 9.37 µg/mL (≈ 23.4 µM), an MIC (Salmonella typhi) of 9.37 µg/mL (≈ 23.4 µM) and an MIC (Aspergillus flavus) of 9.37 µg/mL (≈ 23.4 µM). It also gave an MIC (Staphylococcus aureus) of 9.37 µg/mL (≈ 23.4 µM), an MIC (Bacillus subtilis) of 9.37 µg/mL (≈ 23.4 µM) and an MIC (Bacillus cereus) of 9.37 µg/mL (≈ 23.4 µM). The MIC (Trichoderma viride) was 18.8 µg/mL (≈ 46.8 µM), the MIC (Rhizoctonia solani) was 9.37 µg/mL (≈ 23.4 µM) and the MIC (Microsporum canis) was 18.8 µg/mL (≈ 46.8 µM).
Compound Clc1ccccc1C(c1ccccc1)(c1ccccc1)n1ccnc1 [CLOTRIMAZOLE] has an MIC (Aspergillus fumigatus) of 4.68 µg/mL (≈ 13.6 µM), an MIC (Trichophyton longifusum) of 4.68 µg/mL (≈ 13.6 µM) and an MIC (Aspergillus awamori) of 4.68 µg/mL (≈ 13.6 µM). The MIC (Fusarium solani) was 4.68 µg/mL (≈ 13.6 µM), the MIC (Aspergillus niger) was 2.34 µg/mL (≈ 6.79 µM) and the MIC (Candida albicans) was 2.34 µg/mL (≈ 6.79 µM). It also gave an MIC (Alternaria alternata) of 1.17 µg/mL (≈ 3.39 µM), an MIC (Aspergillus flavus) of 2.34 µg/mL (≈ 6.79 µM) and an MIC (Trichoderma viride) of 2.34 µg/mL (≈ 6.79 µM). For the same compound, the MIC (Rhizoctonia solani) was 2.34 µg/mL (≈ 6.79 µM) and the MIC (Microsporum canis) was 4.68 µg/mL (≈ 13.6 µM).
COc1cc(C2C(Cl)C(=O)N2CCN2CCN(C(=O)CCl)CC2)ccc1O (stereo not given) showed an MIC (Aspergillus fumigatus) of 18.8 µg/mL (≈ 45 µM), an MIC (Staphylococcus hominis) of 9.37 µg/mL (≈ 22.5 µM) and an MIC (Trichophyton longifusum) of 9.37 µg/mL (≈ 22.5 µM). For the same compound, the MIC [1] was 9.37 µg/mL (≈ 22.5 µM), the MIC (Proteus mirabilis) was 9.37 µg/mL (≈ 22.5 µM) and the MIC (Pseudomonas aeruginosa) was 4.68 µg/mL (≈ 11.2 µM). It also gave an MIC (Aspergillus awamori) of 18.8 µg/mL (≈ 45 µM), an MIC (Fusarium solani) of 18.8 µg/mL (≈ 45 µM) and an MIC (Escherichia coli) of 9.37 µg/mL (≈ 22.5 µM). The MIC (Micrococcus luteus) was 4.68 µg/mL (≈ 11.2 µM), the MIC (Bacillus pumilus) was 9.37 µg/mL (≈ 22.5 µM) and the MIC (Aspergillus niger) was 18.8 µg/mL (≈ 45 µM). The MIC (Candida albicans) was 9.37 µg/mL (≈ 22.5 µM), the MIC (Proteus vulgaris) was 9.37 µg/mL (≈ 22.5 µM) and the MIC (Klebsiella pneumoniae) was 9.37 µg/mL (≈ 22.5 µM). It also gave an MIC (Alternaria alternata) of 18.8 µg/mL (≈ 45 µM), an MIC (Salmonella typhi) of 4.68 µg/mL (≈ 11.2 µM) and an MIC (Aspergillus flavus) of 9.37 µg/mL (≈ 22.5 µM). The MIC (Staphylococcus aureus) was 9.37 µg/mL (≈ 22.5 µM), the MIC (Bacillus subtilis) was 9.37 µg/mL (≈ 22.5 µM) and the MIC (Bacillus cereus) was 9.37 µg/mL (≈ 22.5 µM). It also gave an MIC (Trichoderma viride) of 18.8 µg/mL (≈ 45 µM), an MIC (Rhizoctonia solani) of 9.37 µg/mL (≈ 22.5 µM) and an MIC (Microsporum canis) of 18.8 µg/mL (≈ 45 µM).
Work on O=C(O)c1cn(C2CC2)c2cc(N3CCNCC3)c(F)cc2c1=O [CIPROFLOXACIN] yielded an MIC (Staphylococcus hominis) of 2.34 µg/mL (≈ 7.06 µM), an MIC [1] of 2.34 µg/mL (≈ 7.06 µM) and an MIC (Proteus mirabilis) of 2.34 µg/mL (≈ 7.06 µM). It also gave an MIC (Pseudomonas aeruginosa) of 2.34 µg/mL (≈ 7.06 µM), an MIC (Escherichia coli) of 2.34 µg/mL (≈ 7.06 µM) and an MIC (Micrococcus luteus) of 2.34 µg/mL (≈ 7.06 µM). It also gave an MIC (Bacillus pumilus) of 2.34 µg/mL (≈ 7.06 µM), an MIC (Proteus vulgaris) of 2.34 µg/mL (≈ 7.06 µM) and an MIC (Klebsiella pneumoniae) of 2.34 µg/mL (≈ 7.06 µM). It also gave an MIC (Salmonella typhi) of 2.34 µg/mL (≈ 7.06 µM), an MIC (Staphylococcus aureus) of 2.34 µg/mL (≈ 7.06 µM) and an MIC (Bacillus subtilis) of 2.34 µg/mL (≈ 7.06 µM). For the same compound, the MIC (Bacillus cereus) was 2.34 µg/mL (≈ 7.06 µM).
